Test results as given in patent US10010614B2, “Derivatives of GLP-1 like peptides, and uses thereof” (Novo Nordisk A/S, priority 2013, dated 2018).
Read-outs that look alike come from different tables or passages of the source. Numbered stars: 1 amine (or outer) side, 2 acyl side, 3 side chain; on linkers, the order of the positions; unused ones are H or OH. Square brackets hold non-standard residues; d marks the D form. Side chains are listed from the residue outwards. Peptide text beside a SMILES is read from it. * marks the point of attachment. C20 diacid = O=C(O)CCCCCCCCCCCCCCCCCCC(=O)*; γGlu = O=C(O)[C@H](CCC(=O)[*:2])N[*:1]; εLys = N[C@@H](CCCCN[*:1])C(=O)[*:2]; Trx = NC[C@H]1CC[C@H](C(=O)O)CC1; PEG4 = NCCOCCOCCOCCOCCC(=O)O; AEEA = NCCOCCOCC(=O)O; Aib = CC(C)(N)C(=O)O

Experiments:
[1] = target: T1, human GLP-1 receptor (Homo sapiens, UniProt P43220); test: GLP-1 receptor binding, competitive binding assay (125I-GLP-1, SPA) on isolated membranes;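 further: test compounds added at a range of concentrations to membranes from cells expressing the human GLP-1 receptor, scored by displacement of labelled ligand, read with WGA SPA beads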
T1 construct: expressed in transfected cells; host or cells: membranes prepared from BHK cells (parent line BHKTS13), clone FCW467-12A
T1 sequence (P43220 24-463): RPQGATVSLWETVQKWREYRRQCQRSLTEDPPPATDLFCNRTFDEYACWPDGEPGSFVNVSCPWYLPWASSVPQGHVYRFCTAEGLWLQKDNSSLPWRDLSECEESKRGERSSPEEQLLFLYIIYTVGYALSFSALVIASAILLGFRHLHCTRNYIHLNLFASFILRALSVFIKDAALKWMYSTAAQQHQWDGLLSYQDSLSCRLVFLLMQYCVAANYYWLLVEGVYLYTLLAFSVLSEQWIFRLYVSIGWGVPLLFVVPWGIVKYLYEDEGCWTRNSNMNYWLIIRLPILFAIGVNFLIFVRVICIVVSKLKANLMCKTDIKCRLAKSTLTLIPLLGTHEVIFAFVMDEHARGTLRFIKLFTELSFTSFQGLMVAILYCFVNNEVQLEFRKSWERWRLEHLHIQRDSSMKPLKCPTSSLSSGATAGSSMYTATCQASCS

[2] = target: T1, human GLP-1 receptor; test: In vitro potency, CRE luciferase reporter gene assay in BHK cells expressing the human GLP-1 receptor; assay type: cell-based; settings: whole cell reporter gene assay, 3 h incubation, no HSA, averages of at least two replicates
How it was run: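 Stably transfected BHK cells (5×10^3/well) expressing human GLP-1R with a CRE-luciferase reporter; compounds diluted in buffer with 2% ovalbumin and 0.2% Pluronic F-68, final 1×10^−7 to 1×10^−14 M. Incubated 3 h at 37 °C, 5% CO2, then luminescence read; potency from non-linear log(agonist)–response fit, mean of ≥2 replicates.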

[3] = High HSA IC50 (nM), high serum albumin (2.0% HSA final assay concentration)
[4] = Low HSA IC50 (nM), low serum albumin (max. 0.001% final assay concentration)

IC50 ([1]; high serum albumin (2.0% HSA final assay concentration), read-out: High HSA IC50) [nM]	IC50 ([1]; low serum albumin (max. 0.001% final assay concentration), read-out: Low HSA IC50) [nM]	Structure (SMILES)	IC50 [1, 3] [nM]	IC50 [1, 4] [nM]	EC50 [2] [nM]
		CC[C@H](C)[C@H](NC(=O)[C@H](Cc1ccccc1)NC(=O)[C@H](CCC(=O)O)NC(=O)[C@H](CCCNC(=N)N)NC(=O)[C@H](C)NC(=O)[C@H](C)NC(=O)[C@H](CCC(N)=O)NC(=O)[C@H](CCC(=O)O)NC(=O)[C@H](CCC(=O)O)NC(=O)[C@H](CC(C)C)NC(=O)[C@H](Cc1ccc(O)cc1)NC(=O)[C@H](CO)NC(=O)[C@H](CO)NC(=O)[C@@H](NC(=O)[C@H](CC(=O)O)NC(=O)[C@H](CO)NC(=O)[C@@H](NC(=O)[C@H](Cc1ccccc1)NC(=O)[C@@H](NC(=O)CNC(=O)[C@H](CCC(=O)O)NC(=O)C(C)(C)NC(=O)[C@@H](N)Cc1c[nH]cn1)[C@@H](C)O)[C@@H](C)O)C(C)C)C(=O)N[C@@H](C)C(=O)N[C@@H](Cc1c[nH]c2ccccc12)C(=O)N[C@@H](CC(C)C)C(=O)N[C@H](C(=O)N[C@@H](CCCNC(=N)N)C(=O)NCC(=O)N[C@@H](CCCNC(=N)N)C(=O)NCC(=O)N[C@@H](CCCCNC(=O)COCCOCCNC(=O)COCCOCCNC(=O)CC[C@H](NC(=O)[C@H]1CC[C@H](CNC(=O)CCCCCCCCCCCCCCCCCCC(=O)O)CC1)C(=O)O)C(=O)N1CCC[C@H]1C(=O)N[C@@H](CCC(=O)O)C(=O)NCC(=O)N[C@@H](CCCCNC(=O)COCCOCCNC(=O)COCCOCCNC(=O)CC[C@H](NC(=O)[C@H]1CC[C@H](CNC(=O)CCCCCCCCCCCCCCCCCCC(=O)O)CC1)C(=O)O)C(=O)O)C(C)C [Example 12] (H-H[Aib]EGTFTSDVSSYLEEQAAREFIAWLVRGRGK([AEEA-AEEA-γGlu-Trx-C20 diacid])PEGK([AEEA-AEEA-γGlu-Trx-C20 diacid])-OH)	212	1.4	0.024
		CC[C@H](C)[C@H](NC(=O)[C@H](Cc1ccccc1)NC(=O)[C@H](CCC(=O)O)NC(=O)[C@H](CCCNC(=N)N)NC(=O)[C@H](C)NC(=O)[C@H](C)NC(=O)[C@H](CCC(N)=O)NC(=O)[C@H](CCC(=O)O)NC(=O)[C@H](CCC(=O)O)NC(=O)[C@H](CC(C)C)NC(=O)[C@H](Cc1ccc(O)cc1)NC(=O)[C@H](CO)NC(=O)[C@H](CO)NC(=O)[C@@H](NC(=O)[C@H](CC(=O)O)NC(=O)[C@H](CO)NC(=O)[C@@H](NC(=O)[C@H](Cc1ccccc1)NC(=O)[C@@H](NC(=O)CNC(=O)[C@H](CCC(=O)O)NC(=O)C(C)(C)NC(=O)[C@@H](N)Cc1c[nH]cn1)[C@@H](C)O)[C@@H](C)O)C(C)C)C(=O)N[C@@H](C)C(=O)N[C@@H](Cc1c[nH]c2ccccc12)C(=O)N[C@@H](CC(C)C)C(=O)N[C@H](C(=O)N[C@@H](CCCNC(=N)N)C(=O)NCC(=O)N[C@@H](CCCNC(=N)N)C(=O)NCC(=O)N[C@@H](CCCCNC(=O)CCOCCOCCOCCOCCNC(=O)CC[C@H](NC(=O)[C@H]1CC[C@H](CNC(=O)CCCCCCCCCCCCCCCCCCC(=O)O)CC1)C(=O)O)C(=O)NCC(=O)NCC(=O)N[C@@H](CO)C(=O)N[C@@H](CCCCNC(=O)CCOCCOCCOCCOCCNC(=O)CC[C@H](NC(=O)[C@H]1CC[C@H](CNC(=O)CCCCCCCCCCCCCCCCCCC(=O)O)CC1)C(=O)O)C(=O)O)C(C)C [Example 10, N{Alpha}([Aib8,Glu22,Arg26,Arg34]-GLP-1-(7-37)-peptidyl)-N{Epsilon}3-[2-[2-[2-[2-[[(4S)-4-carboxy-4-[[4-[(19-carboxynonadecanoylamino)methyl]cyclohexanecarbonyl]amino]butanoyl]amino]ethoxy]ethoxy]ethoxy]ethoxy]propanoylLys-Gly-Gly-Ser-N{Epsilon}3-[2-[2-[2-[2-[[(4S)-4-carboxy-4-[[4-[(19-carboxynonadecanoylamino)methyl]cyclohexanecarbonyl]amino]butanoyl]amino]ethoxy]ethoxy]ethoxy]ethoxy]propanoylLys] (H-H[Aib]EGTFTSDVSSYLEEQAAREFIAWLVRGRGK([PEG4-γGlu-Trx-C20 diacid])GGSK([PEG4-γGlu-Trx-C20 diacid])-OH)	123	1.3	0.027
30	0.08	CC[C@H](C)[C@H](NC(=O)[C@H](Cc1ccccc1)NC(=O)[C@H](CCC(=O)O)NC(=O)[C@H](CCCNC(=N)N)NC(=O)[C@H](C)NC(=O)[C@H](C)NC(=O)[C@H](CCC(N)=O)NC(=O)[C@H](CCC(=O)O)NC(=O)[C@H](CCC(=O)O)NC(=O)[C@H](CC(C)C)NC(=O)[C@H](Cc1ccc(O)cc1)NC(=O)[C@H](CO)NC(=O)[C@H](CO)NC(=O)[C@@H](NC(=O)[C@H](CC(=O)O)NC(=O)[C@H](CO)NC(=O)[C@@H](NC(=O)[C@H](Cc1ccccc1)NC(=O)[C@@H](NC(=O)CNC(=O)[C@H](CCC(=O)O)NC(=O)C(C)(C)NC(=O)[C@@H](N)Cc1c[nH]cn1)[C@@H](C)O)[C@@H](C)O)C(C)C)C(=O)N[C@@H](C)C(=O)N[C@@H](Cc1c[nH]c2ccccc12)C(=O)N[C@@H](CC(C)C)C(=O)N[C@H](C(=O)N[C@@H](CCCNC(=N)N)C(=O)NCC(=O)N[C@@H](CCCNC(=N)N)C(=O)NCC(=O)N[C@@H](CCCCNC(=O)COCCOCCNC(=O)COCCOCCNC(=O)COCCOCCNC(=O)COCCOCCNC(=O)COCCOCCNC(=O)[C@@H](N)CCCCNC(=O)[C@@H](N)CCCCNC(=O)CCCCCCCCCCCCCCCCCCC(=O)O)C(=O)NCC(=O)NCC(=O)N[C@@H](CO)C(=O)N[C@@H](CCCCNC(=O)COCCOCCNC(=O)COCCOCCNC(=O)COCCOCCNC(=O)COCCOCCNC(=O)COCCOCCNC(=O)[C@@H](N)CCCCNC(=O)[C@@H](N)CCCCNC(=O)CCCCCCCCCCCCCCCCCCC(=O)O)C(=O)O)C(C)C [Example 27] (H-H[Aib]EGTFTSDVSSYLEEQAAREFIAWLVRGRGK([AEEA-AEEA-AEEA-AEEA-AEEA-εLys-εLys-C20 diacid])GGSK([AEEA-AEEA-AEEA-AEEA-AEEA-εLys-εLys-C20 diacid])-OH; N-terminus and C-terminus assumed)			0.0044
